Measurements from US20030092735A1, “Use of substance P antagonists for the treatment of chronic fatigue syndrome and/or fibromyalgia and use of NK-1 receptor antagonists for the treatment of chronic fatigue syndrome” (priority 1998, published 2003).

Key:
[1] = test system: patients who meet the ACR criteria for primary fibromyalgia; test: Fibromyalgia Clinical Study (randomized, double-blind, placebo-controlled); assay type: in vivo, human; conditions: doses of 10 to 20 mg/day; response = 35% or higher reduction in individual pain score, baseline versus end of treatment
Source text: The study is in the form of a prospective, randomized, double-blind, placebo-controlled, parallel-group study using different doses of Compound of the Invention. Male and female patients (over 18 years) who meet the ACR (American College of Rheumatology) cirteria for primary fibromyalgia are included in this trial. The main exclusion criteria include pregnant and lactating woman, patients suffering from other inflammatory rheumatological diseases (such as rheumatoid arthritis or collagenoses), severe neuropathies, clinically manifest endocrinopathies, bone diseases, severe cardial, renal or hepatic impairment and acute or chronic infections.
Patients are randomly assigned to one of five study arms, placebo, 1 mg, 10 mg, 20 mg and 40 mg of test compound. The duration of treatment is two weeks. Before, on day 7 and at the end of the treatment phase, a physical examination, pain assessment and blood testing are performed. […] Adverse events are assessed during the active treatment period.
To evaluate pain, the pain score, a visual analogue scale and clinical examination of tenderpoints is used. […] The assessment of each body region is done by the patients themselves; the total score is calculated as the sum of the regional scores. […]

[2] = test system: Patients with chronic fatigue syndrome; test: CFS Clinical Study (randomized, double-blind, placebo-controlled); assay type: in vivo, human; conditions: doses of 10 to 20 mg/day, myalgias, cognitive impairment, baseline vs end of treatment
Source text: Patients with chronic fatigue syndrome according to the CDC (Centre for Disease Control) definition (G. P. Holmes et al.: A working case definition. Ann. intern. Med; 108 (1988), 387-389) are included in the trial. Other recognised definitions may be used to identify patients with chronic fatigue syndrome as appropriate. Both male and female patients are eligible, provided they are over 18 years of age and under 65 years of age. The main exclusion criteria comprise pregnant and lactating women; in addition patients suffering from other diseases that cause significant fatigue as well as patients who suffer from active infections are excluded. […]
The study is in the form of a prospective, randomized, double-blind, placebo-controlled, parallel-group study using different doses of a Preferred A Compound of the Invention, (e.g. (2R,4S)-N-[1-(3,5-bistrifluoromethylbenzoyl)-2-(4-chlorobenzyl)-piperidin-4-yl-quinolin-4-carboxamide). […] Adverse events are assessed during the active treatment period. […]
Other parameters which are evaluated include cognitive impairment (to be measured by visual analog scale [VAS]) and the assessment of myalgias. […] The assessment of each body region is done by the patients themselves; the total score is calculated as the sum of the regional scores. […]

[3] = test system: patients who meet the ACR criteria for primary fibromyalgia; conditions: Amitryptilin regarded as an effective treatment in fibromyalgia; comparator value; cited from earlier work

In the case of `O=C(N[C@H]1CCN(C(=O)c2cc(C(F)(F)F)cc(C(F)(F)F)c2)[C@H](Cc2ccc(Cl)cc2)C1)c1ccnc2ccccc12` [(2R,4S)-N-[1-(3,5-bistrifluoromethylbenzoyl)-2-(4-chlorobenzyl)-piperidin-4-yl-quinolin-4-carboxamide], the “response rates for fibromyalgia treatment” value [1] is reported as “at least equivalent to or comparable with those achieved with Amitryptilin” and the “reduction in the score for one or more symptoms of CFS” value [2] is reported as ≥ 20%.
In the case of `CN(C)CCC=C1c2ccccc2CCc2ccccc21` [Amitryptilin], the “response rates in fibromyalgia (of patients)” value [3] is listed as 20 to 30%.
